From patent US9340590B2 (priority 2011, dated 2016)
pIC50: −log10 of the molar value. Read-outs that look alike come from different tables or passages of the source. Positions of bridges follow the written chain, without caps; N, C: chain ends. Residues, ends and D or L forms follow the SMILES beside them.

Key:
Assay in all cases: cell-based
hNav1.3 = hNav1.3 (Homo sapiens, UniProt Q9NY46); conditions: IonWorks Quattro, read-out: IWQ Use Nav1.3
hNav1.7 [1] = target: T1, hNav1.7 (Homo sapiens, UniProt Q15858)
hNav1.5 = hNav1.5 (Homo sapiens, UniProt Q14524); conditions: for pIC50: IonWorks Quattro, clamped to −110 mV, depolarized to −10 mV, 5 min after compound, n=2, read-out: IWQ Use Nav1.5
Sequence of hNav1.5 (Q14524 whole entry, looked up): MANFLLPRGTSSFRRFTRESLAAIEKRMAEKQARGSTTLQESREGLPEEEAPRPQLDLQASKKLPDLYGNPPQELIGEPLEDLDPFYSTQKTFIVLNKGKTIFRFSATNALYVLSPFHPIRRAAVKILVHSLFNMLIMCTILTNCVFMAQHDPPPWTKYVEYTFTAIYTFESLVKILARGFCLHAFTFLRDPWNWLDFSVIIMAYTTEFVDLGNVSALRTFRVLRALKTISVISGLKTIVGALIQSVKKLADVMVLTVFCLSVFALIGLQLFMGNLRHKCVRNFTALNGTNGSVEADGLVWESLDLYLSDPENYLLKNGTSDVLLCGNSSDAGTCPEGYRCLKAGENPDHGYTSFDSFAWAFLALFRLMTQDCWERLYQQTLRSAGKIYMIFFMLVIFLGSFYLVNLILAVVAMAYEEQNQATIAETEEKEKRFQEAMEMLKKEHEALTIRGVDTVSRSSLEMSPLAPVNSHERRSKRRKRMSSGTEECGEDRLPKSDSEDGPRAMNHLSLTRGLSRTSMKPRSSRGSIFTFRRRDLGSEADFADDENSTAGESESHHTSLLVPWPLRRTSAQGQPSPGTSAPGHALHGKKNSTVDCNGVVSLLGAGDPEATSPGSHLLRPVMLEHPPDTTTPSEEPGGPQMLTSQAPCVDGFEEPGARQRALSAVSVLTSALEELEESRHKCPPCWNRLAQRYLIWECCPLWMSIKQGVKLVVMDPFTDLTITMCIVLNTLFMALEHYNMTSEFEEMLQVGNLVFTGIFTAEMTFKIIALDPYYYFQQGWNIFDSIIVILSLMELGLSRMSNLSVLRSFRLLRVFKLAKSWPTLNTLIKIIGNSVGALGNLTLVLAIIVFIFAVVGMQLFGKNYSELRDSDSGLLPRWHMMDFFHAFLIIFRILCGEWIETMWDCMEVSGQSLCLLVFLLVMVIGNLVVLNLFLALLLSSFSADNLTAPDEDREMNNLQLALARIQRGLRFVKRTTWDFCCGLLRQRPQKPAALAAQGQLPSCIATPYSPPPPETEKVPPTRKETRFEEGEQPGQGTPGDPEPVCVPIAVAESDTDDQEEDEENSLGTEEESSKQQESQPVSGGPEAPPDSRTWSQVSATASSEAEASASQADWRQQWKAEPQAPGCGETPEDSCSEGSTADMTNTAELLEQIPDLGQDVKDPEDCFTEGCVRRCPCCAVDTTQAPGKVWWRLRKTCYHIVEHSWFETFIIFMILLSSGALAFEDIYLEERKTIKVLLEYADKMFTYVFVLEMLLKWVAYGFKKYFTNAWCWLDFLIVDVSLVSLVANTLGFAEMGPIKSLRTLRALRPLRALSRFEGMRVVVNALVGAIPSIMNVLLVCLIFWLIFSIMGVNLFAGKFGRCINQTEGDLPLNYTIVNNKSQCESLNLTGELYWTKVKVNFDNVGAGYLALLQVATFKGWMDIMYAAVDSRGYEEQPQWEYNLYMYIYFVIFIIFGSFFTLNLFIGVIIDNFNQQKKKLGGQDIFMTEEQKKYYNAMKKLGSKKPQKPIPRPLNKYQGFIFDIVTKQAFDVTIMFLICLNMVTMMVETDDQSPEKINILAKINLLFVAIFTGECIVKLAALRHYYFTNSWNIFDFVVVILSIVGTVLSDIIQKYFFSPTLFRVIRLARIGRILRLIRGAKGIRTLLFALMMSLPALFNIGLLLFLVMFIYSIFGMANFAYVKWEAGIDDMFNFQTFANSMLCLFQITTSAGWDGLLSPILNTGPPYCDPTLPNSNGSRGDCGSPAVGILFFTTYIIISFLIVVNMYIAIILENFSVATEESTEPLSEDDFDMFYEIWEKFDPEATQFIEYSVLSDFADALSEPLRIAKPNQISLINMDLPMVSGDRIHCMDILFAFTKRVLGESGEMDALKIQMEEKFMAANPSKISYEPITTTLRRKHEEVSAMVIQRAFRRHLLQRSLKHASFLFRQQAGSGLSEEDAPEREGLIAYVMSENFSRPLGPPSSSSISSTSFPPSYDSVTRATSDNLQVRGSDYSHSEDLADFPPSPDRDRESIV

hNav1.7 [2] = target: T1, hNav1.7; assay type: cell-based
[3] = clamped to −110 mV, depolarized to −10 mV, 5 min after compound, n=2
[4] = IonWorks Quattro, clamped to −110 mV, depolarized to −10 mV, 5 min after compound, n=2, read-out: IWQ Use Nav1.7

Sequence of hNav1.3 (Q9NY46 whole entry, looked up): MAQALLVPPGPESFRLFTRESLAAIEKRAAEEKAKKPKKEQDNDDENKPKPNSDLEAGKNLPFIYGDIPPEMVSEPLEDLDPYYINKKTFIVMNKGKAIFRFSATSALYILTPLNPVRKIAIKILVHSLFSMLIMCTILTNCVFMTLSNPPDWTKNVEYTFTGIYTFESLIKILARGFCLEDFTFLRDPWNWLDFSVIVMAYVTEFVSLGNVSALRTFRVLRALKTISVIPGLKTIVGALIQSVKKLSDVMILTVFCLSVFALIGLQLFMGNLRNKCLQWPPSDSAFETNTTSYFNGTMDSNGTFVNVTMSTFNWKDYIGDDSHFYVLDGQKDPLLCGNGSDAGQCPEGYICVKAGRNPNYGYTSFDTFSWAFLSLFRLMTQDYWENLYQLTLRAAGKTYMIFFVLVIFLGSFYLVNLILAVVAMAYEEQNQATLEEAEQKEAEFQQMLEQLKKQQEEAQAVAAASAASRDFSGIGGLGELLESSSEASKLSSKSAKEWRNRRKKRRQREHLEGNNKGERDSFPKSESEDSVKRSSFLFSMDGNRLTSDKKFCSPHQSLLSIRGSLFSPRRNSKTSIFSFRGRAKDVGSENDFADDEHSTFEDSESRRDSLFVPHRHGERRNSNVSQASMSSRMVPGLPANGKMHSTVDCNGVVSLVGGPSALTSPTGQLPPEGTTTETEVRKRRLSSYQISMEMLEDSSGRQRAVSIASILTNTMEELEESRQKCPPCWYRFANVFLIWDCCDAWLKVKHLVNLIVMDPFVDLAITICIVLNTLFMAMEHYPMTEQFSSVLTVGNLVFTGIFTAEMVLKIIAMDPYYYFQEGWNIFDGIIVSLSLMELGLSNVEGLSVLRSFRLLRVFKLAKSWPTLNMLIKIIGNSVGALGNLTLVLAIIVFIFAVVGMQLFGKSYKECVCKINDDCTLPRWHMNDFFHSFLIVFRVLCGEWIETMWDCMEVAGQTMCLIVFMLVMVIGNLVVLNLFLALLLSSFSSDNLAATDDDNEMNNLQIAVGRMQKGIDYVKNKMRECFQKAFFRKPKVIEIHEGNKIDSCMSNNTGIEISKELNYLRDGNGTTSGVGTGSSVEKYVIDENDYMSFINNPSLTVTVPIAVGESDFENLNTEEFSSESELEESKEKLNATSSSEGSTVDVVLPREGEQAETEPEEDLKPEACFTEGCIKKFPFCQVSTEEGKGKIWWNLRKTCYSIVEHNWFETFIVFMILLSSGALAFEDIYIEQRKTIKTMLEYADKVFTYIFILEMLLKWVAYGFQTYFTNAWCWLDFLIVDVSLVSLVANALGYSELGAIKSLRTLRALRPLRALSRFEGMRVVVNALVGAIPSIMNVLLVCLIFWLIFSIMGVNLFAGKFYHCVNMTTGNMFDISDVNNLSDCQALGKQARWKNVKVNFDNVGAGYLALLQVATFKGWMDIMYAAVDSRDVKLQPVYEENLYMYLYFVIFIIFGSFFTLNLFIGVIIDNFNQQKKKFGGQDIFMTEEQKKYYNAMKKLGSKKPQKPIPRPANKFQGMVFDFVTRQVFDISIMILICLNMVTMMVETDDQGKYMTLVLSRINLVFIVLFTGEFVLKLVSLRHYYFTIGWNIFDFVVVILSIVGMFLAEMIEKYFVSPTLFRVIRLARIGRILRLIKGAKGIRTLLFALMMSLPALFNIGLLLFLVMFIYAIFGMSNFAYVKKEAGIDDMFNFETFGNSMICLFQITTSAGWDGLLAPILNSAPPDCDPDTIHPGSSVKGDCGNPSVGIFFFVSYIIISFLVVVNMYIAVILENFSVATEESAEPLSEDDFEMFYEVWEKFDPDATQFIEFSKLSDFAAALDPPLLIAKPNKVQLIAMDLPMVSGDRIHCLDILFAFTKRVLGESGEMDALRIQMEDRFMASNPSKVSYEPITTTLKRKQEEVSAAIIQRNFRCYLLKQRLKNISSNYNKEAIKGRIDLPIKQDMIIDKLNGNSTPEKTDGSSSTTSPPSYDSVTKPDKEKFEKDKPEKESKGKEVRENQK

| SMILES | pIC50 (hNav1.7 [1]; Nav1.7 Use IC50) | pIC50 (hNav1.3; [3]) | pIC50 (hNav1.5) | other results |
| --- | --- | --- | --- | --- |
| CC[C@H](C)[C@@H]1NC(=O)[C@@H]2CSSC[C@@H]3NC(=O)[C@H](C(C)C)NC(=O)[C@H](CC(C)C)NC(=O)[C@H](CC(N)=O)NC(=O)[C@@H]4CCCN4C(=O)[C@H](CCCNC(=N)N)NC(=O)[C@H](CSSC[C@H](NC(=O)[C@@H](N)CC(=O)O)C(=O)N[C@@H](CC(C)C)C(=O)NCC(=O)N[C@@H](Cc4ccccc4)C(=O)N[C@@H](CCSC)C(=O)N[C@@H](CCCNC(=N)N)C(=O)N[C@@H](CCCCN)C(=O)N2)NC(=O)[C@H](CSSC[C@@H](C(=O)N[C@@H](CCCCN)C(=O)N[C@@H](Cc2ccc(O)cc2)C(=O)N[C@H](C(=O)N[C@@H](Cc2ccccc2)C(N)=O)C(C)C)NC(=O)[C@H](Cc2c[nH]c4ccccc24)NC(=O)[C@H](CCC(=O)O)NC(=O)[C@H](Cc2cnc[nH]2)NC(=O)[C@H]([C@@H](C)O)NC(=O)[C@H](CCCNC(=N)N)NC(=O)[C@H](CO)NC3=O)NC(=O)[C@H](CCCCN)NC(=O)[C@H](CC(=O)O)NC(=O)[C@H](CC(N)=O)NC(=O)[C@H](CC(=O)O)NC(=O)[C@@H]2CCCN2C1=O [SEQ ID NO: 153, [Glu28]GpTx-1(1-34)] (H-DCLGFMRKCIPDNDKCCRPNLVCSRTHEWCKYVF-NH2; disulfide 2-17, 9-23, 16-30) | 7.30 | – | – | pIC50 (hNav1.3; Table 23, use, […]): 6.10; IC50 (hNav1.5; IWQ Use Nav1.5 (μM)): 14.1 µM |
| CC[C@H](C)[C@@H]1NC(=O)CNC(=O)[C@H](CC(C)C)NC(=O)[C@@H](NC(=O)[C@@H](N)CC(=O)O)CSSC[C@@H]2NC(=O)[C@@H]3CSSC[C@@H](C(=O)N[C@@H](CCCCN)C(=O)N[C@@H](Cc4ccc(O)cc4)C(=O)N[C@H](C(=O)N[C@@H](Cc4ccccc4)C(N)=O)C(C)C)NC(=O)[C@H](Cc4c[nH]c5ccccc45)NC(=O)[C@H](CCCCN)NC(=O)[C@H](Cc4cnc[nH]4)NC(=O)[C@H]([C@@H](C)O)NC(=O)[C@H](CCCNC(=N)N)NC(=O)[C@H](CO)NC(=O)[C@H](CSSC[C@H](NC(=O)[C@H](CCCCN)NC(=O)[C@H](CCCNC(=N)N)NC(=O)[C@H](CCSC)NC1=O)C(=O)N[C@@H]([C@@H](C)CC)C(=O)N1CCC[C@H]1C(=O)N[C@@H](CC(=O)O)C(=O)N[C@@H](CC(N)=O)C(=O)N[C@@H](CC(=O)O)C(=O)N[C@@H](CCCCN)C(=O)N3)NC(=O)[C@H](C(C)C)NC(=O)[C@H](CC(C)C)NC(=O)[C@H](CC(N)=O)NC(=O)[C@@H]1CCCN1C(=O)[C@H](CCCNC(=N)N)NC2=O [SEQ ID NO: 88] (H-DCLGIMRKCIPDNDKCCRPNLVCSRTHKWCKYVF-NH2; disulfide 2-17, 9-23, 16-30) | 8.70 | 6.21 | 5.18 | pIC50 (hNav1.7 [2]; [4]): 6.44 |
| CC[C@H](C)[C@@H]1NC(=O)[C@@H]2CSSC[C@@H]3NC(=O)[C@H](C(C)C)NC(=O)[C@H](CC(C)C)NC(=O)[C@H](CC(N)=O)NC(=O)[C@@H]4CCCN4C(=O)[C@H](CCCNC(=N)N)NC(=O)[C@H](CSSC[C@H](NC(=O)[C@@H](N)CC(=O)O)C(=O)N[C@@H](CC(C)C)C(=O)NCC(=O)N(C)[C@@H](CC(C)C)C(=O)N[C@@H](CCSC)C(=O)N[C@@H](CCCNC(=N)N)C(=O)N[C@@H](CCCCN)C(=O)N2)NC(=O)[C@H](CSSC[C@@H](C(=O)N[C@@H](CCCCN)C(=O)N[C@@H](Cc2ccc(O)cc2)C(=O)N[C@H](C(=O)N[C@@H](Cc2ccccc2)C(N)=O)C(C)C)NC(=O)[C@H](Cc2c[nH]c4ccccc24)NC(=O)[C@H](CCCCN)NC(=O)[C@H](Cc2cnc[nH]2)NC(=O)[C@H]([C@@H](C)O)NC(=O)[C@H](CCCNC(=N)N)NC(=O)[C@H](CO)NC3=O)NC(=O)[C@H](CCCCN)NC(=O)[C@H](CC(=O)O)NC(=O)[C@H](CC(N)=O)NC(=O)[C@H](CC(=O)O)NC(=O)[C@@H]2CCCN2C1=O [[NMeLeu5]GpTx-1(1-34)] | 7.59 | – | – | – |
| CC[C@H](C)[C@@H]1NC(=O)[C@@H]2CSSC[C@@H]3NC(=O)[C@H](C(C)C)NC(=O)[C@H](CC(C)C)NC(=O)[C@H](CC(N)=O)NC(=O)[C@@H]4CCCN4C(=O)[C@H](CCCNC(=N)N)NC(=O)[C@H](CSSC[C@H](NC(=O)[C@@H](N)CC(=O)O)C(=O)N[C@@H](CC(C)C)C(=O)NCC(=O)N[C@@H](C(C)C)C(=O)N[C@@H](CCSC)C(=O)N[C@@H](CCCNC(=N)N)C(=O)N[C@@H](CCCCN)C(=O)N2)NC(=O)[C@H](CSSC[C@@H](C(=O)N[C@@H](CCCCN)C(=O)N[C@@H](Cc2ccc(O)cc2)C(=O)N[C@H](C(=O)N[C@@H](Cc2ccccc2)C(N)=O)C(C)C)NC(=O)[C@H](Cc2c[nH]c4ccccc24)NC(=O)[C@H](CCCCN)NC(=O)[C@H](Cc2cnc[nH]2)NC(=O)[C@H]([C@@H](C)O)NC(=O)[C@H](CCCNC(=N)N)NC(=O)[C@H](CO)NC3=O)NC(=O)[C@H](CCCCN)NC(=O)[C@H](CC(=O)O)NC(=O)[C@H](CC(N)=O)NC(=O)[C@H](CC(=O)O)NC(=O)[C@@H]2CCCN2C1=O [SEQ ID NO: 272] (H-DCLGVMRKCIPDNDKCCRPNLVCSRTHKWCKYVF-NH2; disulfide 2-17, 9-23, 16-30) | 7.74 | 5.99 | 4.88 | pIC50 (hNav1.7 [2]; [4]): 6.15 |
| CC[C@H](C)[C@@H]1NC(=O)[C@@H]2CSSC[C@@H]3NC(=O)[C@H](C(C)C)NC(=O)[C@H](CC(C)C)NC(=O)[C@H](CC(N)=O)NC(=O)[C@@H]4CCCN4C(=O)[C@H](CCCNC(=N)N)NC(=O)[C@H](CSSC[C@H](NC(=O)[C@@H](N)CC(=O)O)C(=O)N[C@@H](CC(C)C)C(=O)NCC(=O)N[C@@H](CC(C)C)C(=O)N[C@@H](CCSC)C(=O)N[C@@H](CCCNC(=N)N)C(=O)N[C@@H](CCCCN)C(=O)N2)NC(=O)[C@H](CSSC[C@@H](C(=O)N[C@@H](CCCCN)C(=O)N[C@@H](Cc2ccc(O)cc2)C(=O)N[C@H](C(=O)N[C@@H](Cc2ccccc2)C(N)=O)C(C)C)NC(=O)[C@H](Cc2c[nH]c4ccccc24)NC(=O)[C@H](CCCCN)NC(=O)[C@H](Cc2cnc[nH]2)NC(=O)[C@H]([C@@H](C)O)NC(=O)[C@H](CCCNC(=N)N)NC(=O)[C@H](CO)NC3=O)NC(=O)[C@H](CCCCN)NC(=O)[C@H](CC(=O)O)NC(=O)[C@H](CC(N)=O)NC(=O)[C@H](CC(=O)O)NC(=O)[C@@H]2CCCN2C1=O [SEQ ID NO: 267] (H-DCLGLMRKCIPDNDKCCRPNLVCSRTHKWCKYVF-NH2; disulfide 2-17, 9-23, 16-30) | 8.15 | 6.52 | 5.13 | pIC50 (hNav1.7 [2]): 6.77 |
| CC[C@H](C)[C@@H]1NC(=O)[C@@H]2CSSC[C@@H]3NC(=O)[C@H](C(C)C)NC(=O)[C@H](CC(C)C)NC(=O)[C@H](CC(N)=O)NC(=O)[C@@H]4CCCN4C(=O)[C@H](CCCNC(=N)N)NC(=O)[C@H](CSSC[C@H](NC(=O)[C@@H](N)CC(=O)O)C(=O)N[C@@H](CC(C)C)C(=O)NCC(=O)N[C@@H](C)C(=O)N[C@@H](Cc4ccccc4)C(=O)N[C@@H](CCCNC(=N)N)C(=O)N[C@@H](CCCCN)C(=O)N2)NC(=O)[C@H](CSSC[C@@H](C(=O)N[C@@H](CCCCN)C(=O)N[C@@H](Cc2ccc(O)cc2)C(=O)N[C@H](C(=O)N[C@@H](Cc2ccccc2)C(N)=O)C(C)C)NC(=O)[C@H](Cc2c[nH]c4ccccc24)NC(=O)[C@H](CCCCN)NC(=O)[C@H](Cc2c[nH]cn2)NC(=O)[C@H](CC(C)C)NC(=O)[C@H](CCCNC(=N)N)NC(=O)[C@H](CO)NC3=O)NC(=O)[C@H](CCCCN)NC(=O)[C@H](CC(=O)O)NC(=O)[C@H](CC(N)=O)NC(=O)[C@H](CC(=O)O)NC(=O)[C@@H]2CCCN2C1=O [[Ala5;Phe6;Leu26]GpTx-1(1-34)] (H-DCLGAFRKCIPDNDKCCRPNLVCSRLHKWCKYVF-NH2; disulfide 2-17, 9-23, 16-30) | – | – | – | pIC50 (hNav1.7 [1]; read-out: Nav1.7 Use IC50): 8.40 |
| CC[C@H](C)[C@@H]1NC(=O)[C@@H]2CSSC[C@@H]3NC(=O)[C@H](C(C)C)NC(=O)[C@H](CC(C)C)NC(=O)[C@H](CC(N)=O)NC(=O)[C@@H]4CCCN4C(=O)[C@H](CCCNC(=N)N)NC(=O)[C@H](CSSC[C@H](NC(=O)[C@@H](N)CC(=O)O)C(=O)N[C@@H](CC(C)C)C(=O)NCC(=O)N[C@@H](Cc4ccccc4)C(=O)N[C@@H](CCSC)C(=O)N[C@@H](CCCNC(=N)N)C(=O)N[C@@H](CCCCN)C(=O)N2)NC(=O)[C@H](CSSC[C@@H](C(=O)N[C@@H](CCCCN)C(=O)N[C@@H](Cc2ccc(O)cc2)C(=O)N[C@H](C(=O)N[C@@H](Cc2ccccc2)C(N)=O)C(C)C)NC(=O)[C@H](Cc2c[nH]c4ccccc24)NC(=O)[C@H](CCC(N)=O)NC(=O)[C@H](Cc2c[nH]cn2)NC(=O)[C@H]([C@@H](C)O)NC(=O)[C@H](CCCNC(=N)N)NC(=O)[C@H](CO)NC3=O)NC(=O)[C@H](CCCCN)NC(=O)[C@H](CC(=O)O)NC(=O)[C@H](CC(N)=O)NC(=O)[C@H](CC(=O)O)NC(=O)[C@@H]2CCCN2C1=O [[Gln28]GpTx-1(1-34)] (H-DCLGFMRKCIPDNDKCCRPNLVCSRTHQWCKYVF-NH2; disulfide 2-17, 9-23, 16-30) | – | – | – | pIC50 (hNav1.7 [1]; read-out: Nav1.7 Use IC50): 8.40 |
